{
  "source": "patent US20110086355A1",
  "about": "“BRCA1 mRNA EXPRESSION LEVELS PREDICT SURVIVAL IN BREAST CANCER PATIENTS TREATED WITH NEOADJUVANT CHEMOTHERAPY” (PANGAEA BIOTECH, S.A., priority 2008, published 2011)",
  "origin": "cited, not measured here",
  "key": {"[1]": {"tested_on": "HCC1937 breast cancer cell line", "settings": "wild-type BRCA1 reconstituted vs BRCA1-negative HCC1937"}, "[2]": {"tested_on": "SKOV-3 human ovarian cancer cell line"}, "breast cancer cell line": {"tested_on": "breast cancer cell line", "settings": "BRCA1 mRNA determined by RT-QPCR"}, "[3]": {"tested_on": "Mouse models carrying conditional disruption of BRCA1"}},
  "data": [
    {"smiles": "N.N.[Cl][Pt][Cl]", "note": "[cisplatin]", "values": [
      {"measurement": "increase in resistance", "setting": "[1]", "value": 20, "unit": "fold"},
      {"measurement": "resistance after upregulation of BRCA1 expression", "setting": "[2]", "value": "increased cisplatin resistance"},
      {"measurement": "change of sensitivity after decreased BRCA1 mRNA expression", "setting": "breast cancer cell line", "value": "greater sensitivity"}
    ]},
    {"smiles": "COc1cccc2c1C(=O)c1c(O)c3c(c(O)c1C2=O)C[C@@](O)(C(=O)CO)C[C@@H]3O[C@H]1C[C@H](N)[C@H](O)[C@H](C)O1", "note": "[doxorubicin]", "values": [
      {"measurement": "sensitivity of BRCA1-disrupted mouse models", "setting": "[3]", "value": "highly sensitive"}
    ]},
    {"smiles": "COc1cc([C@@H]2c3cc4c(cc3[C@@H](O[C@@H]3O[C@@H]5CO[C@@H](C)O[C@H]5[C@H](O)[C@H]3O)[C@H]3COC(=O)[C@H]23)OCO4)cc(OC)c1O", "note": "[etoposide]", "values": [
      {"measurement": "change of sensitivity after decreased BRCA1 mRNA expression", "setting": "breast cancer cell line", "value": "greater sensitivity"}
    ]},
    {"smiles": "CC(=O)O[C@H]1C(=O)[C@@]2(C)[C@H]([C@H](OC(=O)c3ccccc3)[C@]3(O)C[C@H](OC(=O)[C@H](O)[C@@H](NC(=O)c4ccccc4)c4ccccc4)C(C)=C1C3(C)C)[C@]1(OC(C)=O)CO[C@@H]1C[C@@H]2O", "note": "[paclitaxel]", "values": [
      {"measurement": "change of sensitivity after decreased BRCA1 mRNA expression", "setting": "breast cancer cell line", "value": "greater resistance"}
    ]},
    {"smiles": "CC/C(=C(\\c1ccccc1)c1ccc(OCCN(C)C)cc1)c1ccccc1", "note": "[tamoxifen]", "values": [
      {"measurement": "sensitivity of BRCA1-disrupted mouse models", "setting": "[3]", "value": "resistant"}
    ]},
    {"smiles": "CC[C@]1(O)C[C@H]2CN(CCc3c([nH]c4ccccc34)[C@@](C(=O)OC)(c3cc4c(cc3OC)N(C=O)[C@H]3[C@@](O)(C(=O)OC)[C@H](OC(C)=O)[C@]5(CC)C=CCN6CC[C@]43[C@@H]65)C2)C1", "note": "[vincristine]", "values": [
      {"measurement": "change of sensitivity after decreased BRCA1 mRNA expression", "setting": "breast cancer cell line", "value": "greater resistance"}
    ]}
  ]
}
